The values below come from article PMC4924691, “Inhibition of the p53/hDM2 protein-protein interaction by cyclometallated iridium(III) compounds” (Oncotarget, 2016).

Assay [1] addresses T1, p53/hDM2 interaction (Homo sapiens, UniProt Q00987).
T1 construct: Expression of hDM2_17–126 recombinant fragment was performed as described previously; made in house
Briefly: Fluorescence anisotropy (FA) assay, displacement of p53_15–31Flu from hDM2_17–126. Format: binding. The following applies: for IC50 against the p53/hDM2 interaction as determined by a FA assay / IC50: 150 nM hDM2_17–126, 50 nM p53_15–31Flu, 30 min, room temperature; for effect on fluorescence anisotropy / p53/hDM2 interaction: serial dilutions of compound, hDM2_17–126 with p53_15–31Flu; for IC50: read-out: IC50 against the p53/hDM2 interaction as determined by a FA assay. As to the method:
To experimentally test the library of the organo-metallic iridium(III) compounds as p53/hDM2 PPI inhibitors, a fluorescence anisotropy (FA) assay was performed as previously described. hDM2_17–126 (recombinant fragment) was incubated with fluorescein-labelled p53 peptide (p53_15–31Flu) and serial dilutions of the organometallic iridium(III) compounds.
Figure 2 FA titration data of 1 1 was incubated with 150 nM hDM2_17–126 recombinant fragment and 50 nM fluorescein-labelled p53 peptide (p53_15–31Flu), and fluorescence anisotropy was measured at 480ex/535em.
Expression of hDM2_17–126 recombinant fragment was performed as described previously. Fluorescence anisotropy assays were used to study the displacement of p53 from hDM2 by organometallic compounds. The experiments were performed in triplicate in a volume of 60 μL of the assay buffer (40 mM Na3PO4, pH 7.50, 200 mM NaCl, 0.02 mg/mL BSA) in black flat-bottom 384-well plates. Different concentrations of organometallic compounds were diluted in the assay buffer containing 150 nM hDM2 and 50 nM p53_15–31Flu (Ac-[…](Flu)-NH2, Peptide Protein Research Ltd.) and incubated at room temperature for 30 min. The intensity and anisotropy was monitored at 480ex/535em ([…] bandwidth) using a Perkin Elmer EnvisionTM 2103 MultiLabel plate reader. The data was analyzed according to published methods.
For orientation: Polarisation of emitted light reports the rotation of a fluorescent probe.

Assay [2] has as its system T2, p53/hDM2 interaction.
T2 construct: host or cells: A375 cells
Briefly: Pull-down assay of p53-Flag/hDM2-myc in A375 cells. Type of assay: cell-based, human. To be noted: for effect of isolated ligands on the p53/hDM2 interaction: Supplementary Figure S4. As to the method: A pull-down assay was conducted to further examine the effect of 1 on the p53/hDM2 interaction. A375 cells were co-transfected with cDNAs encoding p53-Flag and hDM2-myc fusion proteins. After 6 h of treatment with NVP-CGM097 or 1, p53/hDM2 complexes were immunoprecipitated using anti-Flag magnetic beads and analysed by immunoblotting.
A375 cells seeded in 6-well plates were co-transfected with pcDNA-Flag-p53 (Addgene) and pCMV-myc3-hDM2 (Addgene) for 6 h using TurboFect transfection reagent following the instruction from manufacturer. Cells were then cultured in Dulbecco's Modified Eagle's Medium (DMEM) complete medium overnight. Serial dilutions of organometallic compounds in low FBS buffer were placed into the wells, and incubated with cells for additional 6 h. Protein samples were collected, and the concentration in the supernatant was determined with the bicinchoninic acid (BCA) method. The […] of p53/hDM2 in the protein samples were pulled down using anti-Flag magnetic beads to capture the FLAG fusion proteins (Sigma) as previously described. The protein-binding beads were washed three time with TBS buffer (50 mM Tris HCl, 150 mM NaCl, pH 7.4) to remove non-specifically bound proteins, and subsequently subjected to the sodium dodecyl sulfate-polyacrylamide gel electrophoresis (SDS-PAGE) by detection with anti-Flag (1:1000, Sigma-Aldrich) and anti-myc antibodies (1:1000, Beyotime).

The test system of assay [3] is p53 and hDM2 protein expression levels. Briefly: Immunoblotting of p53 and hDM2 protein expression in A375 cells. The following applies: for effect on hDM2 and p53 protein expression levels: 6 h, up to the highest concentration of 1 μM. Type of assay: cell-based, human. How it is done: To assess whether 1 suppressed p53 or hDM2 protein expression levels, resulting in a decrease in the levels of precipitated protein detected in the pull-down assay, an immunoblotting experiment was performed.

Assay [4] concerns the target T3, hDM2(17-126) recombinant fragment (human, UniProt Q00987 17-126).
T3 construct: human double minute 2 protein (hDM2, MDM2), human, residues 17-126; also called human double minute 2 protein; source: recombinant fragment, expressed as described previously [33]
Briefly: fluorescence polarisation; fluorescence anisotropy competition: 150 nM hDM2(17-126) and 50 nM p53(15-31)Flu with serial dilutions of iridium(III) compounds; 40 mM Na3PO4 pH 7.50, 200 mM NaCl, 0.02 mg/mL BSA; room temperature, 30 min; 480ex/535em. The following applies: both partners purified.

For the molecule `F[P-](F)(F)(F)(F)F.[Ir+3].[c-]1ccccc1-n1cccn1.[c-]1ccccc1-n1cccn1.c1ccc(-c2ccccn2)nc1` [Compound 3, 2, 2′-bipyridinebis(1-phenyl-1H-pyrazole)iridium(III) hexafluorophosphate], at p53/hDM2 interaction [1], the “IC50 against the p53/hDM2 interaction as determined by a FA assay” value was “No noticeable binding” and the “effect on fluorescence anisotropy / p53/hDM2 interaction” value was “no noticeable effect”. Turning to `Clc1cc2ccc[n+]3c2c2c1ccc[n+]2[Ir-3]312([c]3ccccc3-c3sc4ccccc4[n+]31)[c]1ccccc1-c1sc3ccccc3[n+]12.F[P-](F)(F)(F)(F)F` [Compound 4, 5-chloro-1, 10-phenanthrolinebis(2-phenylbenzo[d]thiazole)iridium(III) hexafluorophosphate], on p53/hDM2 interaction [1], the “IC50 against the p53/hDM2 interaction as determined by a FA assay” value is given as “No noticeable binding” and the “effect on fluorescence anisotropy / p53/hDM2 interaction” value is recorded as “no noticeable effect”. On to `F[P-](F)(F)(F)(F)F.c1cc[c]2c(c1)-c1ccc3ccccc3[n+]1[Ir-3]213([c]2ccccc2-c2ccc4ccccc4[n+]21)[n+]1cccc2c4nccnc4c4ccc[n+]3c4c21` [Compound 5, pyrazino[2,3-f][1, 10]phenanthrolinebis(2-phenylquinoline)iridium(III) hexafluorophosphate], for which, at p53/hDM2 interaction [1], the IC50 was 21 µM and the “effect on fluorescence anisotropy / p53/hDM2 interaction” value is on record as “decreased significantly”.

For the molecule `Clc1cc2nc3c4cccnc4c4ncccc4c3nc2cc1Cl.F[P-](F)(F)(F)(F)F.Fc1c[c-]c(-c2ccccn2)c(F)c1.Fc1c[c-]c(-c2ccccn2)c(F)c1.[Ir+3]` [Compound 6, 11, 12-dichlorodipyrido[3,2-a:2′,3′-c]phenazinebis(2-(2,4-difluorophenyl)pyridine)iridium(III) hexafluorophosphate], on p53/hDM2 interaction [1], the IC50 came to 33 µM and the “effect on fluorescence anisotropy / p53/hDM2 interaction” value is “decreased significantly”. As for `COc1cc2c(cc1OC(C)C)[C@H](c1ccc(Cl)cc1)N(c1ccc(N(C)C[C@H]3CC[C@H](N4CCN(C)C(=O)C4)CC3)cc1)C(=O)C2` [NVP-CGM097, reference compound], the “amount of precipitated hDM2 (pulled down with p53-Flag)” value with p53/hDM2 interaction [2] (6 h of treatment) is recorded as “decreased”. Besides, the “expression of hDM2 protein” value in assay [3] (1 μM) is “significantly increased”. Consider `Clc1ccnc2c1ccc1c(Cl)ccnc12` [dcphen, 4,7-dichloro-1, 10-phenanthroline], for which the “effect of isolated ligands on the p53/hDM2 interaction” value with p53/hDM2 interaction [2] is listed as “Neither eppy nor dcphen ligands were found to have a significant effect”. In addition, the “effect on hDM2 and p53 protein expression levels” value in assay [3] was “Neither eppy nor dcphen ligands were found to have a significant effect”. Consider `CCc1ccc(-c2ccccn2)cc1` [eppy, 2-(4-ethylphenyl)pyridine], for which the “effect of isolated ligands on the p53/hDM2 interaction” value in the assay with p53/hDM2 interaction [2] was “Neither eppy nor dcphen ligands were found to have a significant effect”. For the same molecule, the “effect on hDM2 and p53 protein expression levels” value in assay [3] was “Neither eppy nor dcphen ligands were found to have a significant effect”.

B1: fluorescein-labelled p53 peptide (p53 15-31 Flu) (peptide)
peptide: SQETFSDLWKLLPENNVC
modifications: N-terminal acetyl (Ac-); fluorescein on the C-terminal cysteine, C(Flu); C-terminal amide (-NH2)
notes: added C-terminal cysteine that carries the fluorescein; not part of p53 15-31; source: synthetic peptide, bought: Peptide Protein Research Ltd
In the case of B1, in assay [4], the binding result was “binds”.
